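Where inhibition never reached the appropriate level, the endpoint shown equals the highest concentration tested. Otherwise, values were interpolated linearly from a five-concentration, 48-hour dose response in 96-well plates. GI50: concentration for 50% inhibition of growth.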 Calls of active or inactive are those of the source. Rule as the data show it: active = GI50 up to about 1.1 µM and inactive = higher.
Key:
Test in all cases: NCI anticancer screen, dose series, 48 h
Malme-3M = system: Malme-3M
BT-549 = system: BT-549
SN12C = system: SN12C
TK-10 = system: TK-10
NCI/ADR-RES = system: NCI/ADR-RES
MDA-MB-231 = system: MDA-MB-231
NCI-H522 = system: NCI-H522
786-0 = system: 786-0
SK-MEL-5 = system: SK-MEL-5
CAKI-1 = system: CAKI-1
U-251 = system: U-251
PC-3 = system: PC-3
OVCAR-4 = system: OVCAR-4
MDA-N = system: MDA-N
SF-295 = system: SF-295
HCT-15 = system: HCT-15
Hs-578T = system: Hs-578T
SF-539 = system: SF-539
K562 = system: K562
HL-60 = system: HL-60

Structure (SMILES) | GI50 (Malme-3M) | GI50 (BT-549) | GI50 (SN12C) | GI50 (TK-10) | GI50 (NCI/ADR-RES) | GI50 (MDA-MB-231) | GI50 (NCI-H522) | GI50 (786-0) | GI50 (SK-MEL-5) | GI50 (CAKI-1) | GI50 (U-251) | GI50 (PC-3) | GI50 (OVCAR-4) | GI50 (MDA-N) | GI50 (SF-295) | GI50 (HCT-15) [µM] | GI50 (Hs-578T) | GI50 (SF-539) | GI50 (K562) | GI50 (HL-60)
Cn1c(=O)c2nc(CCCCC(=O)O)[nH]c2n(C)c1=O | > 100 µM (inactive) | > 100 µM (inactive) | > 100 µM (inactive) | > 100 µM (inactive) | > 100 µM (inactive) | > 100 µM (inactive) | > 100 µM (inactive) | > 100 µM (inactive) | > 100 µM (inactive) | > 100 µM (inactive) | > 100 µM (inactive) | > 100 µM (inactive) | > 100 µM (inactive) | > 100 µM (inactive) | > 100 µM (inactive) | > 100 | 68.5 µM (inactive) |  |  | 
C[C@]12CC[C@H]3[C@@H](CC=C4C[C@@H](O)CC[C@@]43C)[C@@H]1C/C(=C\c1cccnc1)[C@@H]2O | > 100 µM (inactive) | 13.5 µM (inactive) | 9.44 µM (inactive) | 19.6 µM (inactive) | 11.8 µM (inactive) | 13.2 µM (inactive) | 12.6 µM (inactive) | 19 µM (inactive) |  |  | 6.27 µM (inactive) | 30.7 µM (inactive) | 4.68 µM (inactive) | > 100 µM (inactive) | 2.55 µM (inactive) | 38.1 | 6.21 µM (inactive) | 14 µM (inactive) |  | 
CCc1n[nH]c(=O)n1/N=C/c1ccccc1O |  | > 100 µM (inactive) | > 100 µM (inactive) | > 100 µM (inactive) | > 100 µM (inactive) | > 100 µM (inactive) | > 100 µM (inactive) | > 100 µM (inactive) | > 100 µM (inactive) |  | > 100 µM (inactive) | > 100 µM (inactive) | > 100 µM (inactive) | > 100 µM (inactive) | > 100 µM (inactive) | > 100 | 28 µM (inactive) | > 100 µM (inactive) | > 100 µM (inactive) | 
Cc1ccc(S(=O)(=O)NC(=O)NCCC(=O)O)cc1 | > 100 µM (inactive) | 25.8 µM (inactive) | > 100 µM (inactive) | > 100 µM (inactive) |  | > 100 µM (inactive) | > 100 µM (inactive) | > 100 µM (inactive) | > 100 µM (inactive) |  | > 100 µM (inactive) | > 100 µM (inactive) | > 100 µM (inactive) | > 100 µM (inactive) | > 100 µM (inactive) | 21.4 | > 100 µM (inactive) | > 100 µM (inactive) | > 100 µM (inactive) | > 100 µM (inactive)
COC(=O)[C@@H]1Cc2ccc(OC)c(c2)OCCC(=O)N1 | > 100 µM (inactive) | > 100 µM (inactive) |  | > 100 µM (inactive) | > 100 µM (inactive) | > 100 µM (inactive) | > 100 µM (inactive) | > 100 µM (inactive) | > 100 µM (inactive) | > 100 µM (inactive) | > 100 µM (inactive) | > 100 µM (inactive) | > 100 µM (inactive) | > 100 µM (inactive) | > 100 µM (inactive) | > 100 | > 100 µM (inactive) |  | > 100 µM (inactive) | 
COc1cccc(-c2c(-c3ccccc3)[nH]c(C)c2C(=O)ONC(=O)c2ccccc2)c1 | 13.4 µM (inactive) | 5.41 µM (inactive) | 3.4 µM (inactive) | 9.08 µM (inactive) | 8.93 µM (inactive) | 9.55 µM (inactive) | 3.78 µM (inactive) | 4.44 µM (inactive) | 9.93 µM (inactive) | 3.18 µM (inactive) | 3.14 µM (inactive) | 11.6 µM (inactive) | 5.05 µM (inactive) |  | 2.55 µM (inactive) | 12.1 | 4.95 µM (inactive) | 6.76 µM (inactive) | 2.89 µM (inactive) | 1.93 µM (inactive)
COc1ccc(C(=O)/C=C2\c3ccccc3C(=O)N2C)cc1 | 31.7 µM (inactive) | 68.1 µM (inactive) | 58.5 µM (inactive) | 31.2 µM (inactive) | 38 µM (inactive) | > 100 µM (inactive) | 31.9 µM (inactive) | 92.3 µM (inactive) | 63.4 µM (inactive) | 36.4 µM (inactive) | 74.8 µM (inactive) | 89.1 µM (inactive) | 42.6 µM (inactive) | 41.4 µM (inactive) | 71 µM (inactive) | 36.4 | 90.6 µM (inactive) | 64 µM (inactive) | 44.1 µM (inactive) | 
Cc1ccc(/N=N/c2c(O)ccc3ccccc23)cc1 | > 100 µM (inactive) | > 100 µM (inactive) | > 100 µM (inactive) | > 100 µM (inactive) | > 100 µM (inactive) | > 100 µM (inactive) | > 100 µM (inactive) | > 100 µM (inactive) | > 100 µM (inactive) | > 100 µM (inactive) | 53.6 µM (inactive) | 83 µM (inactive) | > 100 µM (inactive) | > 100 µM (inactive) | > 100 µM (inactive) | 64 | > 100 µM (inactive) |  | > 10 µM (inactive) | 
Cc1ccc(S(=O)(=O)CC2(Br)CCc3ccccc3C2=O)cc1 (stereo unspecified) | 33.5 µM (inactive) | 18.3 µM (inactive) | 30.6 µM (inactive) | 33 µM (inactive) | 48.9 µM (inactive) | 28 µM (inactive) | 15.6 µM (inactive) | 42.9 µM (inactive) | 17.6 µM (inactive) | 24.5 µM (inactive) | 21.4 µM (inactive) | 42.4 µM (inactive) | 27.7 µM (inactive) |  | 77.8 µM (inactive) | 19.8 | 32.6 µM (inactive) | 33.7 µM (inactive) | 5.89 µM (inactive) | 17.3 µM (inactive)
Nc1cc(C2CCCc3c2[nH]c2ccccc32)ccc1O (stereo unspecified) | 33 µM (inactive) | 35.2 µM (inactive) | 65.2 µM (inactive) | > 100 µM (inactive) | 22 µM (inactive) | 84.5 µM (inactive) | 20.1 µM (inactive) | 15.3 µM (inactive) | 6 µM (inactive) | 25.2 µM (inactive) | 48.2 µM (inactive) | 38.5 µM (inactive) | 16.9 µM (inactive) |  | 14.4 µM (inactive) | 55.3 | 69.8 µM (inactive) | > 100 µM (inactive) | 6.56 µM (inactive) | 14.2 µM (inactive)
O=C1OCC2OC(=O)c3cc(O)c(O)c(O)c3-c3c(O)c(O)c(O)c4c3C(=O)OC(C2OC(=O)c2cc(O)c(O)c(O)c2-c2c1cc(O)c(O)c2O)C1OC(=O)C2C4=C(O)C(=O)C23Oc2cc(O)c4c(c2[C@H]13)O[C@H](c1ccc(O)c(O)c1)[C@@H](O)C4 (stereo partly specified) | 23.1 µM (inactive) | 19.3 µM (inactive) | 18 µM (inactive) |  | 23.3 µM (inactive) | 18.9 µM (inactive) | 17.4 µM (inactive) | 21.4 µM (inactive) | 16 µM (inactive) | 16.2 µM (inactive) | 16.6 µM (inactive) | 38.5 µM (inactive) | 15.7 µM (inactive) |  | 19.8 µM (inactive) | 18.4 | 28.1 µM (inactive) |  | 26 µM (inactive) | 18.5 µM (inactive)

From ChEMBL document CHEMBL1201862, “PubChem BioAssay data set” (2004)
